What was measured:
Wistar rats = test: elevated plus-maze test on rats (anxiolytic effect); format: in vivo, rat; conditions: 30 min after administration, within 5 minutes
Protocol: The anxiolytic effect of the compounds was evaluated using an elevated plus-maze test on rats.
The elevated plus-maze consists of two closed arms and two open arms cross each other with length, width and height respectively of 50 cm, 10 cm and 40 cm.
The central connecting area is 10 cm (length)×10 cm (width), and the maze is 50 cm above the ground, placed in the darker side of the fluorescent lamp and 1 meter away from the lamp. Wistar rats were randomly divided into groups with 5 per group, and the rats were fasted but not deprived of water for 12 hours; The test compound was formulated with 0.5% sodium carboxymethylcellulose into a suspension of certain concentration for intragastric administration. Thirty minutes after administration, the rats were placed in the central connecting area of the maze with the heads facing the direction of the open arms. Then the dwell time of the animals in the open arms within 5 minutes was recorded.

[1] = subacute toxicity, 7-day intragastric administration: blood biochemical and hematological indicators; format: in vivo, rat; conditions: 60 mg/kg intragastric once a day for 7 days; for plasma ALT compared with control group (Solvent group) / plasma AST compared with control group (Solvent group): SD rats, result in words; for ALT / AST: male Sprague-Dawley rats
Protocol: (§1) Male Sprague-Dawley rats (220-240 g), were randomly divided into groups with 5 per group; The test compound was formulated with 0.5% sodium carboxymethylcellulose into a preparation of a concentration of 60 mg/kg for intragastric administration once a day and continuously for 7 days. After the last administration, the SD rats were fasted but not deprived of water for 12 hours, and anesthetized. Their blood samples were obtained from the abdominal aortas and made to serum samples for determination of blood biochemical indicators and immunological indicators; EDTA Anticoagulated blood was prepared for general blood routine determination. Referring to the method of the literature (En Li, et al. Effect of buagafuran on liver microsomal cytochrome P450 in rats. J Asian Natural Products Research. 2010; 12: 371-381.), liver microsome was prepared from the liver taken, and the activity of CYP isoenzyme was determined using a probe substrate. The relative enzymatic activity of the test compound was calculated by taking the activity of the solvent group as 1.

CYP1A1 = test: induction of liver metabolic enzyme, liver microsome probe substrate activity after 7-day administration; format: in vivo, rat; conditions: 60 mg/kg intragastric once a day for 7 days; for Relative enzyme activity CYP1A1: rat liver microsome, solvent group = 1; for activity of metabolic enzyme CYP1A1 in the liver compared with solvent group: result in words
Protocol: as §1

CYP2E1 [2] = test: as above; format: in vivo, rat; conditions: 60 mg/kg intragastric once a day for 7 days; for Relative enzyme activity CYP2E1: rat liver microsome, solvent group = 1; for activity of metabolic enzyme CYP2E1 in the liver compared with solvent group: result in words
Protocol: as §1

[3] = background statement; cited from earlier work
CYP2E1 [4] = conditions: literature, rats; cited from earlier work
CYP1A2 = conditions: literature, rats; cited from earlier work
[5] = background statement; cited from earlier work; remark: listed apart in the source

[2H]C1=C(C([2H])([2H])C([2H])([2H])C([2H])([2H])C([2H])([2H])[2H])[C@@]23C[C@@H](CC[C@]2(C)CC1)C(C)(C)O3 [I-6, d10-BAF]
dwell time in the open arms (Wistar rats; 1 mg/kg intragastric): 73.3 ± 17.6 s
dwell time in the open arms (Wistar rats; 2 mg/kg intragastric): 71.4 ± 19.1 s
dwell time in the open arms (Wistar rats; 4 mg/kg intragastric): 66.3 ± 19.6 s

[2H]C1([2H])C=C(C([2H])([2H])C([2H])([2H])C([2H])([2H])C([2H])([2H])[2H])[C@@]23C[C@@H](CC[C@]2(C)C1)C(C)(C)O3 [I-7, d11-BAF]
plasma ALT compared with control group (Solvent group) [1]: no significant differences
plasma AST compared with control group (Solvent group) [1]: no significant differences
ALT [1]: 48.7 U/L
AST [1]: 107.7 U/L
dwell time in the open arms (Wistar rats; 1 mg/kg intragastric): 77.5 ± 23.3 s
dwell time in the open arms (Wistar rats; 2 mg/kg intragastric): 72.6 ± 18.6 s
dwell time in the open arms (Wistar rats; 4 mg/kg intragastric): 73.8 ± 11.0 s
Relative enzyme activity CYP1A1 (CYP1A1): 1.1
activity of metabolic enzyme CYP1A1 in the liver compared with solvent group (CYP1A1): not significantly different
Relative enzyme activity CYP2E1 (CYP2E1 [2]): 0.9
activity of metabolic enzyme CYP2E1 in the liver compared with solvent group (CYP2E1 [2]): not significantly different

[2H]C1=C(CCCC)[C@@]23C[C@@H](CC[C@]2(C)CC1([2H])[2H])C(C)(C)O3 [I-2, d3-BAF]
plasma ALT compared with control group (Solvent group) [1]: no significant differences
plasma AST compared with control group (Solvent group) [1]: no significant differences
ALT [1]: 74.0 U/L
AST [1]: 115.4 U/L
dwell time in the open arms (Wistar rats; 1 mg/kg intragastric): 45.6 ± 19.1 s
dwell time in the open arms (Wistar rats; 2 mg/kg intragastric): 69.7 ± 29.8 s
dwell time in the open arms (Wistar rats; 4 mg/kg intragastric): 39.0 ± 25.7 s
Relative enzyme activity CYP1A1 (CYP1A1): 1.4
activity of metabolic enzyme CYP1A1 in the liver compared with solvent group (CYP1A1): not significantly different
Relative enzyme activity CYP2E1 (CYP2E1 [2]): 1.0
activity of metabolic enzyme CYP2E1 in the liver compared with solvent group (CYP2E1 [2]): not significantly different

[2H]C1=C(C([2H])([2H])C([2H])([2H])C([2H])([2H])C([2H])([2H])[2H])[C@@]23C[C@@H](CC[C@]2(C)CC1([2H])[2H])C(C)(C)O3 [I-8, d12-BAF]
dwell time in the open arms (Wistar rats; 1 mg/kg intragastric): 70.7 ± 23.2 s
dwell time in the open arms (Wistar rats; 2 mg/kg intragastric): 76.9 ± 14.4 s
dwell time in the open arms (Wistar rats; 4 mg/kg intragastric): 72.3 ± 17.8 s

CCCCC1=CCC[C@@]2(C)CC[C@@H]3C[C@]12OC3(C)C [BAF, 4-butyl-α-agarofuran, reference compound]
oral bioavailability [3]: low
plasma ALT compared with control group (Solvent group) [1]: significantly increased
plasma AST compared with control group (Solvent group) [1]: significantly increased
ALT [1]: 189.0 U/L
AST [1]: 258.7 U/L
induction effect on liver cytochrome P450 metabolic enzyme CYP2E1 (CYP2E1 [4]): significant induction effect
induction effect on liver cytochrome P450 metabolic enzyme CYP1A2 (CYP1A2): significant induction effect
anxiolytic activity [5]: significant anxiolytic activity
dwell time in the open arms (Wistar rats; 1 mg/kg intragastric): 26.7 ± 27.0 s
dwell time in the open arms (Wistar rats; 2 mg/kg intragastric): 45.2 ± 39.7 s
dwell time in the open arms (Wistar rats; 4 mg/kg intragastric): 69.0 ± 49.0 s
Relative enzyme activity CYP1A1 (CYP1A1): 3.8
activity of metabolic enzyme CYP1A1 in the liver compared with solvent group (CYP1A1): significantly increased
Relative enzyme activity CYP2E1 (CYP2E1 [2]): 1.7
activity of metabolic enzyme CYP2E1 in the liver compared with solvent group (CYP2E1 [2]): significantly increased

[2H]C1([2H])C=C(CCCC)[C@@]23C[C@@H](CC[C@]2(C)C1)C(C)(C)O3 [I-1, d2-BAF]
plasma ALT compared with control group (Solvent group) [1]: no significant differences
plasma AST compared with control group (Solvent group) [1]: no significant differences
ALT [1]: 116.1 U/L
AST [1]: 163.9 U/L
dwell time in the open arms (Wistar rats; 1 mg/kg intragastric): 48.6 ± 21.7 s
dwell time in the open arms (Wistar rats; 2 mg/kg intragastric): 68.4 ± 30.8 s
dwell time in the open arms (Wistar rats; 4 mg/kg intragastric): 47.5 ± 23.6 s
Relative enzyme activity CYP1A1 (CYP1A1): 1.7
activity of metabolic enzyme CYP1A1 in the liver compared with solvent group (CYP1A1): not significantly different
Relative enzyme activity CYP2E1 (CYP2E1 [2]): 1.2
activity of metabolic enzyme CYP2E1 in the liver compared with solvent group (CYP2E1 [2]): not significantly different

[2H]C1([2H])C=C(CCCC)[C@]23OC(C)(C)[C@H](CC[C@]2(C)C1)C3([2H])[2H] [I-3, d4-BAF]
dwell time in the open arms (Wistar rats; 1 mg/kg intragastric): 52.5 ± 26.0 s
dwell time in the open arms (Wistar rats; 2 mg/kg intragastric): 67.2 ± 22.0 s
dwell time in the open arms (Wistar rats; 4 mg/kg intragastric): 42.7 ± 25.1 s

[2H]C([2H])([2H])C([2H])([2H])C([2H])([2H])C([2H])([2H])C1=CCC[C@@]2(C)CC[C@@H]3C[C@]12OC3(C)C [I-5, d9-BAF]
plasma ALT compared with control group (Solvent group) [1]: no significant differences
plasma AST compared with control group (Solvent group) [1]: no significant differences
ALT [1]: 56.6 U/L
AST [1]: 137.2 U/L
dwell time in the open arms (Wistar rats; 1 mg/kg intragastric): 72.0 ± 15.8 s
dwell time in the open arms (Wistar rats; 2 mg/kg intragastric): 71.2 ± 15.3 s
dwell time in the open arms (Wistar rats; 4 mg/kg intragastric): 76.5 ± 16.0 s
Relative enzyme activity CYP1A1 (CYP1A1): 1.3
activity of metabolic enzyme CYP1A1 in the liver compared with solvent group (CYP1A1): not significantly different
Relative enzyme activity CYP2E1 (CYP2E1 [2]): 1.2
activity of metabolic enzyme CYP2E1 in the liver compared with solvent group (CYP2E1 [2]): not significantly different

— patent publication US11358944B2, “Anxiolytic deuterated compound and medical use thereof” (BEIJING JUNKE HUAYUAN MED TECH CO., LTD., priority 2017, dated 2022)
